Patent publication US20120115895A1, “TRICYCLIC INDOLE-DERIVED SPIRO DERIVATIVES AS CRTH2 MODULATORS” (Merck Serono S.A., priority 2009, published 2012)

Assays:
[1] = In vivo pharmacokinetic evaluation in mouse; set-up: species or system C57BL/6 female mice
Procedure: (§1) In order to study the pharmacokinetic (PK) profile of test compounds in vivo, Sprague Dawley male rats or C57BL/6 female mice were dosed intravenously or after oral gavage. For both species, test compounds were dosed in solution at 1 mg/kg for i.v. route (10% ethanol, 10% N,N-dimethylacetamide, 30% propylene glycol, 50% water, v/v) and in suspension at 5 mg/kg (0.5% carboxymethylcellulose suspension, containing 0.25% Tween 20 in water) for oral gavage. PK profile in rat was obtained from 3 animals per dosing route and mouse PK profile was determined from 3 animals for each time points. The volume of administration was 2 mL/kg for i.v. dosing in both species and either 5 mL/kg (rat) or 10 mL/kg (mouse) for oral gavage. Blood samples (100 µL/time point) were collected at 0.083 (5 min), 0.25, 0.5, 1, 4, 7 and 24 hours post-dose for i.v. dosing, and at 0.5, 1, 4, 7 and 24 h for oral dosing, into heparin-Li+ containing tubes. For rats, all blood samples were collected trough a catheter in the carotid artery (placed in the artery the day before the experiment), under light isoflurane anesthesia, and stored on ice until centrifugation and plasma isolation. For mouse, blood samples were collected from intracardiac puncture at sacrifice at each time point and processed as described above for the rat. Plasma samples were stored frozen until analysis (−20° C. to −70° C.). For bioanalysis, samples were processed by protein precipitation (acetonitrile, formic acid 0.1%, addition of 3 volumes) after addition of one internal standard and analysed using a sensitive and selective LC/MS/MS method. An aliquot of the resulting supernatant was subject to LC/MS/MS analysis using a reverse phase column (Waters Xterra, C8, (3.5 μm particle size, 2.1×50 mm) and a short gradient (1 min) from (Solvent A) 85% water, 15% acetonitrile and 0.1% formic acid to (Solvent B) 90% acetonitrile, 10% water and 0.1% formic acid followed by isocratic conditions of Solvent B for 3.5 min at 0.4 mL/min. Column effluent was monitored using a Sciex API 4000 triple quadrupole mass spectrometer with a Turbo V electrospray ion source. Unknown concentrations of test compounds were determined using a calibration curve ranging from 1 to 3000 ng/mL.

CRTH2 [2] = target: T1, CRTH2 (Homo sapiens, UniProt Q9Y5Y4); experiment: Radioligand binding Scintillation Proximity Assay ([3H]PGD2, hCRTH2-CHO cell membranes); set-up: host or cells: CHO cells
T1 sequence (Q9Y5Y4 1-395): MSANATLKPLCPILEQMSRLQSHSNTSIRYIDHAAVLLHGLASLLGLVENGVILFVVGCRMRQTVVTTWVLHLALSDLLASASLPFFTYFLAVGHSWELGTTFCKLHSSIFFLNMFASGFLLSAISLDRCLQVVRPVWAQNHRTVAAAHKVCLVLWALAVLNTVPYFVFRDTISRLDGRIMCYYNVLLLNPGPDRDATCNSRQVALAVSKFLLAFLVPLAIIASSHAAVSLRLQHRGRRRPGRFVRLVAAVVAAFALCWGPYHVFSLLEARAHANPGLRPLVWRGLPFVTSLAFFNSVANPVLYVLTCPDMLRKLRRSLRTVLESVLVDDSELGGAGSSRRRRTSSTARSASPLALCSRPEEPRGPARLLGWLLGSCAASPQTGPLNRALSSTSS
Procedure: Adherent CHO cells expressing hCRTH2 (Euroscreen, Belgium) were cultured in 225 cm2 cell culture flasks (Corning, USA) in 30 ml of medium. After two rinses of phosphate buffered saline (PBS), cells were harvested in 10 ml of PBS containing 1 mM EDTA, centrifuged at 500×g for 5 min at 4° C. and frozen at −80° C. The pellet was re-suspended in 50 mM Tris-HCl, pH 7.4, 2 mM EDTA, 250 mM Sucrose, containing protease inhibitor cocktail tablets, (Complete EDTA-free, Roche, Germany) and incubated 30 min at 4° C. Cells were disrupted by nitrogen cavitation (Parr Instruments, USA) at 4° C. (800 p.s.i. for 30 min), and centrifuged at 500×g for 10 min at 4° C. Pellet containing nuclei and cellular debris was discarded and supernatant was centrifuged 60 min at 4° C. at 45000×g. Membrane pellet was re-suspended in storage buffer (10 mM HEPES/KOH pH 7.4, 1 mM EDTA, 250 mM sucrose, protease inhibitor cocktail tablets) using Dounce homogenization and frozen in liquid nitrogen, and stored at −80° C.
The inhibitory activity can be investigated by a radioligand binding Scintillation Proximity Assay (SPA) (Sawyer et al., Br. J. Pharmocol 2002, 137, 1163-72). The SPA radioligand binding assay was performed at room temperature in binding buffer (10 mM HEPES/KOH pH 7.4, 10 mM MnC12, with protease inhibitor cocktail tablets), containing 1.5 nM [3H]PGD2 (Perkin Elmer), 10-50 μg/ml of hCRTH2—CHO cell membrane protein and 2 mg/ml of Wheat-germ agglutinin Scintillation Proximity Assay beads (RPNQ0001, GE-Healthcare) in a final volume of 100 μl in 96 well plates (Corning, USA). Non-specific binding was determined in the presence of 10 μM PGD2 (Cayman, USA). Competing Compounds of Formula (I) were diluted in dimethylsulphoxide so that the total volume of dimethylsulfoxide was kept constant at 1% dimethylsulphoxide (Me2SO). Serial dilutions of 100 μM to 100 pM were prepared and 10 μl each of the compounds of Formula (I) stock solutions were added to the binding assay reagents and incubated for 90 min with agitation at room temperature. Binding activity was determined by using a 1450 Micro-beta scintillation counter (Wallac, UK).

CRTH2 [3] = target: T1, CRTH2; experiment: PGD2-induced eosinophil cell shape assay in human whole blood; assay type: cell-based; set-up: endogenous in cells; host or cells: eosinophils in human whole blood from healthy volunteers; conditions: 10 nM PGD2
Procedure: The test compounds were diluted in dimethylsulphoxide so that the total volume of dimethylsulfoxide was kept constant at 2% dimethylsulphoxide (Me2SO). Serial dilutions of 200 μM to 0.09 μM were prepared. Samples of 90 μl of human blood from healthy volunteers (Centre de Transfusion Sanguine de Genève) were pre-incubated in polypropylene Falcon tubes (BD 352063) for 20 minutes in a water bath at 37° C. with 10 μl of diluted compounds. For CRTH2 activation, 100 μl PGD2 (Cayman 12010) at 20 nM was added (10 nM final) to each tube and cells were maintained at 37° C. For negative control cells were treated with PBS. After 10 minutes, cell activation was stopped with 120 μl Formaldehyde 10% (4% final, Fluka 41650) and cells were rested for 10 minutes at room temperature. Fixed cells were transferred into polypropylene tubes and then treated for 1 hour in a water bath at 37° C. with 2 ml of Triton—Surfact-Amps X-100 (Pierce 28314) at 0.166% (0.13% Triton final). After several washes with PBS (red cells lysed progressively during washes, two washes are necessary), cells were analyzed by flow cytometry on a FACSCalibur.

[4] = system: OVA-induced eosinophil recruitment in lung; experiment: OVA-induced lung eosinophilia in mice; assay type: in vivo, BALB/c mice; conditions: oral route, dose of 30 mg/Kg
Procedure: BALB/c mice (6-8 weeks old) were immunized with ovalbumin (10 μg i.p) on day 0 and 7. In order to elicit a local inflammatory response in the lung, mice were challenged between day's 15-17 with a nebulised solution of ovalbumin (10 μg/ml; De Vilibiss Ultraneb 2000, once daily for 30 min during the 3 days). On each separate day between 15 and 17 each animal received via oral gavage the test compound, at t−1 h and t+7 h with respect to OVA exposure at t=0 h. Eight hours after the final OVA challenge, bronchoalveolar lavage (BAL) was then carried out. Total cell numbers in the BAL fluid samples were measured using a haemocytometer. Cytospin smears of the BAL fluid samples were prepared by centrifugation at 1200 rpm for 2 min at room temperature and stained using a DiffQuik stain system (Dade Behring) for differential cell counts.

[5] = In vivo pharmacokinetic evaluation in rat; set-up: species or system Sprague Dawley male rats
Procedure: as §1

Cmax ([1]; female, C57BL/6, mouse, plasma, mice, po, 5 mg/Kg): 691 ng/mL | oral bioavailability in mouse ([1]; mouse, in words): significant improvement | Fz in mice ([1]; oral bioavailability, mice, 5 mg/kg po, 1 mg/kg i.v.): 39% | IC50 (CRTH2 [2]; 1.5 nM [3H]PGD2, hCRTH2-CHO membranes, SPA, read-out: IC50 binding): 45 nM | IC50 (CRTH2 [2]; comparison table with (+)-Enantiomer, read-out: Binding IC50): 68 nM | IC50 (CRTH2 [3]): 150 nM | Cmax ([5]; male, Sprague Dawley, rat, plasma, rats, po, 5 mg/Kg): 489 ng/mL | Fz in rats ([5]; oral bioavailability, rats, 5 mg/kg po, 1 mg/kg i.v.): 37% | oral bioavailability in rat ([5]; rat, in words): significant improvement
SMILES: CN1C(=O)N(Cc2cc(Cl)ccc2F)C(=O)C12C(=O)N(CC(=O)O)c1ccc(Cl)cc12 (single isomer, unassigned; (+)) [Example 2, (+)-[5′-chloro-1-(5-chloro-2-fluorobenzyl)-3-methyl-2,2′,5-trioxospiro[imidazolidine-4,3′-indol]-1′(2′H)-yl]acetic acid]
inhibition of OVA-induced eosinophil recruitment in lung [4]: 79%
